Laboratory results taken from patent US20220226484A1, “THERAPEUTIC PEPTIDES” (COHBAR, INC., priority 2019, published 2022).
Positions of bridges follow the written chain, without caps; N, C: chain ends. Non-standard residues stand in square brackets, D forms with d. Primed or numbered codes have the meaning given here. Chains are numbered I, II in the order given. No end group written: not given here. PEG12′ = not defined here; Nle = CCCC[C@H](N)C(=O)O

Assays:
[1] = tested on: 3T3-L1 Mouse Adipocytes; assay: Free fatty acid levels in cultured mouse adipocytes; type: cell-based; details: peptide 10 μM, 1 nM isoproterenol, relative to isoproterenol treated cells
Experimental: The effect of the peptides on fatty acid metabolism can be assessed using an assay of free fatty acid levels in cultured cells such as mouse adipocytes. Peptides were initially prepared as 10 mM stock in DMSO and used at a final concentration of 10 μM (0.1% DMSO). […] Mouse 3T3-L1 cells purchased from ZenBio were seeded at 3,000 cells per well in 96-well plates in Pre-adipocyte Medium (Zen-Bio) and grown to confluence at 37° C. in a humidified atmosphere of 5% CO2/95% air. Two days after confluence, cells were placed in Adipocyte Differentiation Medium (Zen-Bio) and cultured for three additional days at 37° C. in a humidified atmosphere of 5% CO2/95% air. The culture media was then replaced with Adipocyte Maintenance Medium (Zen-Bio) and the cells maintained for an additional 9-12 days at 37° C. in a humidified atmosphere of 5% CO2/95% air with partial medium replacement every other day. Following 12-15 days of differentiation, test peptides were added at a final concentration of 10 μM in 0.1% DMSO and incubated for 20-22 hours in Adipocyte Maintenance Medium at 37° C. in a humidified atmosphere of 5% CO2/95% air. After 20-22 hours, 1 nM isoproterenol was added to all wells except untreated controls and test peptides were replenished. Insulin at 100 nM was added to control wells. Cells were incubated for 3 hours in Assay Buffer (Zen-Bio) at 37° C. in a humidified atmosphere of 5% CO2/95% air. Free fatty acid concentrations in the media were determined using a Free Fatty Acid Assay kit (Zen-Bio) according to the manufacturer's instructions using a Cytation 3 plate reader at 540 nm (BioTek, Winooski, Vt.). Absorbance values were corrected for untreated background and expressed relative to isoproterenol treated cells. Treatment with isoproterenol (1 nM) alone was used as the free fatty acid level stimulatory control. The relative standard deviation of the isoproterenol control was <10%. […] Free fatty acid levels for insulin (100 nM) treatment were <5% of the isoproterenol control value.
The effect of the peptides on fatty acid metabolism was assessed using an assay of free fatty acid levels in cultured cells such as mouse adipocytes. Peptides were initially prepared as 10 mM stock in DMSO and used at a final concentration of 10 μM (0.1% DMSO). […] Mouse 3T3-L1 cells purchased from ZenBio were seeded at 3,000 cells per well in 96-well plates in Pre-adipocyte Medium (Zen-Bio) and grown to confluence at 37° C. in a humidified atmosphere of 5% CO2/95% air. Two days after confluence, cells were placed in Adipocyte Differentiation Medium (Zen-Bio) and cultured for three additional days at 37° C. in a humidified atmosphere of 5% CO2/95% air. The culture media was then replaced with Adipocyte Maintenance Medium (Zen-Bio) and the cells maintained for an additional 9-12 days at 37° C. in a humidified atmosphere of 5% CO2/95% air with partial medium replacement every other day. Following 12-15 days of differentiation, test peptides were added at a final concentration of 10 μM in 0.1% DMSO and incubated for 20-22 hours in Adipocyte Maintenance Medium at 37° C. in a humidified atmosphere of 5% CO2/95% air. After 20-22 hours, 1 nM isoproterenol was added to all wells except untreated controls and test peptides were replenished. Insulin at 100 nM was added to control wells. Cells were incubated for 3 hours in Assay Buffer (Zen-Bio) at 37° C. in a humidified atmosphere of 5% CO2/95% air. Free fatty acid concentrations in the media were determined using a Free Fatty Acid Assay kit (Zen-Bio) according to the manufacturer's instructions using a Cytation 3 plate reader at 540 nm (BioTek, Winooski, Vt.). Absorbance values were corrected for untreated background and expressed relative to isoproterenol treated cells. Treatment with isoproterenol (1 nM) alone was used as the free fatty acid level stimulatory control. The relative standard deviation of the isoproterenol control was <10%. […]

[2] = tested on: 3T3-L1 Mouse Adipocytes; assay: Insulin-dependent effect on free fatty acid levels in cultured mouse adipocytes; type: cell-based; details: 3 hours; for Free Fatty Acid Levels, MEAN % ISO, +Insulin: peptide 10 μM + insulin 0.25 nM, percent of isoproterenol (0.1 nM)+insulin (0.25 nM); for Free Fatty Acid Levels, MEAN % ISO, −Insulin: peptide 10 μM alone, percent of isoproterenol (0.1 nM) treated control cells
Experimental: The effect of the peptides on fatty acid metabolism was assessed in the absence and presence of insulin using an assay of free fatty acid levels in cultured cells such as mouse adipocytes. Peptides were initially prepared as 10 mM stock in DMSO and used at a final concentration of 10 μM (0.1% DMSO). […] Insulin (0.25 nM) was used as a partial inhibitor and insulin (10 nM) was used as a potent inhibitor of isoproterenol stimulated fatty acid production. Mouse 3T3-L1 cells purchased from ZenBio (Research Triangle Park, N.C.) were seeded at 3,000 cells per well on 96-well plates in Pre-Adipocyte Medium (Zen-Bio) and grown to confluence at 37° C. in a humidified atmosphere of 5% CO2/95% air. Two days after confluence, cells were placed in Adipocyte Differentiation Medium (Zen-Bio) and cultured for three additional days at 37° C. in a humidified atmosphere of 5% CO2/95% air. The culture medium was then partially replaced with Adipocyte Maintenance Medium (Zen-Bio) and the cells maintained at 37° C. in a humidified atmosphere of 5% CO2/95% air with partial medium replacement every other day. At 12 day of differentiation, 96-well cultures were transferred to Adipocyte Maintenance Medium without insulin and placed at 37° C. in a humidified atmosphere of 5% CO2/95% air for two days. Following this incubation period, the medium was removed from 14 day differentiated cultures and replaced with Assay Buffer (Zen-Bio) containing peptides (10 μM), insulin (0.25 nM or 10 nM), isoproterenol (0.1 nM) as appropriate. […] isoproterenol was added to all wells except untreated controls. Insulin at 0.1 nM and 10 nM was added to control wells. Peptides (10 μM) in the absence or presence of insulin (0.25 nM) were added to test wells. Cells in the presence of compounds were placed at 37° C. in a humidified atmosphere of 5% CO2/95% air for 3 hours. At the end of the final 3 h incubation, conditioned assay buffer was removed from each well and place in a fresh 96-well plate for quantitation of free fatty acid content. Free fatty acid concentrations in the assay buffer samples were determined using a Free Fatty Acid Assay kit (Zen-Bio) according to the manufacturer's instructions using a Cytation 3 plate reader at 540 nm (BioTek, Winooski, VD. Absorbance values were corrected for untreated background and expressed as a percent of isoproterenol (0.1 nM) treated control cells for peptides alone or isoproterenol (0.1 nM)+insulin (0.25 nM) for peptides in presence of insulin (0.25 nM). Treatment with isoproterenol […] alone was used as the free fatty acid level stimulatory control. The relative standard deviation of the isoproterenol control was <10%. […] Free fatty acid levels for insulin (10 nM) treatment were <5% of the isoproterenol control value. Free fatty acid levels for insulin (0.25 nM) treatment were 60-80% of the isoproterenol control value.

Substance	Free Fatty Acid Levels, MEAN % ISO ([1]; Table 6)	Free Fatty Acid Levels, MEAN % ISO ([1]; Table 12)	Free Fatty Acid Levels, MEAN % ISO, +Insulin [2]	Free Fatty Acid Levels, MEAN % ISO, −Insulin [2]	Free Fatty Acid Levels, MEAN % ISO, +Insulin ([2]; listed as 5)	Free Fatty Acid Levels, MEAN % ISO, −Insulin ([2]; listed as 5)
MRVIRMCLGVGLLGDLAG [SEQ ID NO: 2]	26.4%	26%	60.5%	98.8%	–	–
R(dA)IR(Nle)SLNVGLLGEL(dA) (R[dA]IR[Nle]SLNVGLLGEL[dA]) [SEQ ID NO: 15]	–	101%	112.6%	97.6%	–	–
RVIR(Nle)CLNVGLLGEL(dA)G (RVIR[Nle]CLNVGLLGEL[dA]G) [SEQ ID NO: 6]	–	78%	66.9%	93.6%	–	–
RVIR(Nle)SLNVGLEGEL(dA) (RVIR[Nle]SLNVGLEGEL[dA]) [SEQ ID NO: 14]	–	64%	71.9%	89.9%	–	–
RVIR(Nle)SLNVGLLGEL(dA)G (RVIR[Nle]SLNVGLLGEL[dA]G) [SEQ ID NO: 8]	–	64%	74.9%	69.3%	–	–
RVIRMCLGVGLLGDL(dA)G (RVIRMCLGVGLLGDL[dA]G) [SEQ ID NO: 4]	20.1%	20%	36.6%	92.9%	–	–
RVIRMCLGVGLLGDLAG (disulfide I:6-II:6) [SEQ ID NO: 26]	–	39%	33.4%	93.5%	–	–
RVIRMCLGVGLLGDLAG [SEQ ID NO: 3]	19.7%	20%	37.1%	98.0%	–	–
RVIRMCLGVGLLGDLAGK{PEG12} (RVIRMCLGVGLLGDLAGK(PEG12′)) [SEQ ID NO: 17]	–	31%	35.9%	102%	–	–
RVIRMCLGVGLLGDLAGK{PEG12} (chain 1 RVIRMCLGVGLLGDLAGK(PEG12′); chain 2 RVIRMCLGVGLLGDLAGK(PEG12′); disulfide I:6-II:6) [SEQ ID NO: 28]	–	–	33.4%	80.7%	–	–
RVIRMCLNNGLLGEL(dA)G (RVIRMCLNNGLLGEL[dA]G) [SEQ ID NO: 9]	–	30%	41.0%	95.2%	–	–
RVIRMCLNNGLNGEL(dA)E (RVIRMCLNNGLNGEL[dA]E) [SEQ ID NO: 23]	–	61%	43.9%	99.4%	–	–
RVIRMCLNVGLLGEL(dA)E (RVIRMCLNVGLLGEL[dA]E) [SEQ ID NO: 12]	–	22%	41.2%	92.8%	–	–
RVIRMCLNVGLLGEL(dA)G [SEQ ID NO: 5] (RVIRMCLNVGLLGEL[dA]G)	18.3%	18%	–	–	37.0%	94.3%
RVIRMCLNVGLNGEL(dA)G (RVIRMCLNVGLNGEL[dA]G) [SEQ ID NO: 11]	–	36%	44.0%	65.5%	–	–
RVIRMCLNVGNLGEL(dA)G (RVIRMCLNVGNLGEL[dA]G) [SEQ ID NO: 10]	–	29%	63.2%	90.7%	–	–
RVIRMSLNVGLEGEL(dA) (RVIRMSLNVGLEGEL[dA]) [SEQ ID NO: 13]	–	71%	78.4%	89.5%	–	–
RVIRMSLNVGLLGEL(dA)G (RVIRMSLNVGLLGEL[dA]G) [SEQ ID NO: 7]	–	77%	74.5%	91.1%	–	–
